Laboratory results as given in ChEMBL document CHEMBL5233228, “The cell division protein FtsZ as a cellular target to hit cystic fibrosis pathogens” (Eur J Med Chem, 2020).
pIC50: −log10 of the molar value. In brackets after ≈: the same amount, converted by molar mass. One block for each compound: values may come before it.

How the values were obtained:
[1] = target: T1, Cell division protein FtsZ (Escherichia coli K-12, UniProt P0A9A6); experiment: Inhibition of Escherichia coli recombinant FTsZ incubated for 10 mins in presence of GTP by spectrofluorimeter analysis
T1 sequence (P0A9A6 whole entry): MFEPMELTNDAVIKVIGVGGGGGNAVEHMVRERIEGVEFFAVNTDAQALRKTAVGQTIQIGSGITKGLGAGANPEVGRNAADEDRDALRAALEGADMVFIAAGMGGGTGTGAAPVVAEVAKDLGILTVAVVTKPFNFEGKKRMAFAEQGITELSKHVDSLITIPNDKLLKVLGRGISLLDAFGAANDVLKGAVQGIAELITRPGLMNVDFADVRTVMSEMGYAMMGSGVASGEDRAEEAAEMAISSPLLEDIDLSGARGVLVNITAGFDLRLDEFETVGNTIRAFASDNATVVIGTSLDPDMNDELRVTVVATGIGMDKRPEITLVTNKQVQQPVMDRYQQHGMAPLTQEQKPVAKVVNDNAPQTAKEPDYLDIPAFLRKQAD

Staphylococcus aureus [2] = experiment: Antibacterial activity against Meticillin-Sensitive Staphylococcus aureus assessed as bacterial growth inhibtion incubated for 4 to 6 hrs by broth microdilution method; assay type: functional; conditions: time 4-6 hrs
[3] = target: T2, Cell division protein FtsZ (Staphylococcus aureus, UniProt P0A031); experiment: Inhibition of Staphylococcus aureus recombinant FTsZ preincubated for 10 mins followed by compound addition measured after 30 mins by Cytophos phosphate assay
T2 sequence (P0A031 whole entry): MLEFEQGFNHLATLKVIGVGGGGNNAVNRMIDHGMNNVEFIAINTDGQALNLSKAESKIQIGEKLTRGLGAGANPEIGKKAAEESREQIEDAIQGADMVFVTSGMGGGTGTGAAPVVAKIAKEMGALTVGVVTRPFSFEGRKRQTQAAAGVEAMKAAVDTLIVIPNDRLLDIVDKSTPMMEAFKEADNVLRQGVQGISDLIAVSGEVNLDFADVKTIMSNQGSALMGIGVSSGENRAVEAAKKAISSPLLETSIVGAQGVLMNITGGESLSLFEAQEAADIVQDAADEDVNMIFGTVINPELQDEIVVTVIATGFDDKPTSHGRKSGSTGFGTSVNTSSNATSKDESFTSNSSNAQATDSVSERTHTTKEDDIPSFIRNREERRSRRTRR

Burkholderia cepacia = experiment: Antibacterial activity against Burkholderia cepacia assessed as bacterial growth inhibition by checkerboard assay; assay type: functional
Staphylococcus aureus [4] = experiment: Antibacterial activity against Meticillin-Resistant Staphylococcus aureus assessed as bacterial growth inhibtion by resazurin colorimetric assay; assay type: functional
Staphylococcus aureus [5] = experiment: Antibacterial activity against Meticillin-Sensitive Staphylococcus aureus assessed as bacterial growth inhibtion by resazurin colorimetric assay; assay type: functional
Escherichia coli = experiment: Antibacterial activity against Escherichia coli assessed as bacterial growth inhibition; assay type: functional
Macrococcus caseolyticus = experiment: Antibacterial activity against Macrococcus caseolyticus assessed as bacterial growth inhibition; assay type: functional; conditions: Macrococcoides caseolyticum
Staphylococcus aureus [6] = experiment: Antibacterial activity against Meticillin-Sensitive Staphylococcus aureus assessed as bacterial growth inhibtion; assay type: functional
Pseudomonas aeruginosa = experiment: Antibacterial activity against Pseudomonas aeruginosa assessed as bacterial growth inhibition; assay type: functional
Staphylococcus aureus [7] = experiment: Antibacterial activity against Staphylococcus aureus assessed as bacterial growth inhibition; assay type: functional
Staphylococcus aureus [8] = experiment: Antibacterial activity against Meticillin-Sensitive Staphylococcus aureus assessed as bacterial growth inhibtion incubated for 24 hrs by broth microdilution method; assay type: functional
Staphylococcus aureus [9] = experiment: Antibacterial activity against Meticillin-Resistant Staphylococcus aureus assessed as bacterial growth inhibtion incubated for 24 hrs by broth microdilution method; assay type: functional
Staphylococcus aureus [10] = experiment: Antibacterial activity against Meticillin-Sensitive Staphylococcus aureus assessed as bacterial growth inhibtion incubated for 18 hrs by broth microdilution method; assay type: functional
Staphylococcus aureus [11] = experiment: Antibacterial activity against Meticillin-Resistant Staphylococcus aureus assessed as bacterial growth inhibtion incubated for 18 hrs by broth microdilution method; assay type: functional
Staphylococcus aureus [12] = experiment: Antibacterial activity against Meticillin-Resistant Staphylococcus aureus assessed as bacterial growth inhibtion incubated for 14 to 16 hrs; assay type: functional; conditions: time 14-16 hrs
Staphylococcus aureus [13] = experiment: Antibacterial activity against Meticillin-Sensitive Staphylococcus aureus assessed as bacterial growth inhibtion incubated for 14 to 16 hrs; assay type: functional; conditions: time 14-16 hrs
[14] = target: T3, Cell division protein FtsZ (Staphylococcus aureus) (UniProt P0A031); experiment: Inhibition of Staphylococcus aureus recombinant FTsZ at 50 uM by GTPase activity assay relative to control
T3 sequence (whole entry): T2 sequence (P0A031 whole entry)

Staphylococcus aureus [15] = experiment: Antibacterial activity against Meticillin-Resistant Staphylococcus aureus assessed as bacterial growth inhibtion; assay type: functional
[16] = Inhibition of FTsZ (unknown origin)

- pIC50 [1]: 5.52
Compound: C[n+]1cc2c3c(ccc2c2ccc4cc5c(cc4c21)OCO5)OCO3 [SANGUINARIUM]

Compound: Cc1nc(-c2cccs2)cc([C@H]2CN3CC[C@H]2C[C@@H]3CNC(=O)CCCC(=O)O)n1
- MIC (Staphylococcus aureus [2]): 897 µM (≈ 384 µg/mL)
- pIC50 [3]: 3.50

- pIC50 [3]: 5.00
Compound: COc1ccc2cc3[n+](cc2c1OC)CCc1cc2c(cc1-3)OCO2 [BERBERINE]

Compound: COC(=O)CSc1ccc2nsnc2c1[N+](=O)[O-]
- MIC (Burkholderia cepacia): 8 µg/mL
- MIC (Staphylococcus aureus [4]): 2 µg/mL (≈ 7.01 µM)
- MIC (Staphylococcus aureus [5]): 2 µg/mL (≈ 7.01 µM)

- MIC (Escherichia coli): 5 µg/mL
- MIC (Macrococcus caseolyticus): 5 µg/mL
- MIC (Staphylococcus aureus [6]): 5 µg/mL
- MIC (Pseudomonas aeruginosa): 5 µg/mL
- MIC (Staphylococcus aureus [7]): 5 µg/mL
Compound: Cc1n(Cc2ccccc2)c2ccccc2[n+]1Cc1ccc(Cl)c(Cl)c1

- MIC (Escherichia coli): 5 µg/mL
- MIC (Macrococcus caseolyticus): 5 µg/mL
- MIC (Staphylococcus aureus [6]): 5 µg/mL
- MIC (Pseudomonas aeruginosa): 5 µg/mL
- MIC (Staphylococcus aureus [7]): 5 µg/mL
Compound: Cc1n(Cc2ccc(Cl)c(Cl)c2)c2ccccc2[n+]1Cc1ccc(Cl)c(Cl)c1

Compound: CCC(CC)c1cc([C@H]2CN3CC[C@H]2C[C@@H]3CN)nc(-c2ccncc2)n1
- MIC (Staphylococcus aureus [2]): 24.6 µM (≈ 8.99 µg/mL)

Compound: CN(C)CNC(=O)c1c(F)ccc(OCc2nc3cc(Cl)ccc3s2)c1F
- MIC (Staphylococcus aureus [8]): 0.5 µg/mL (≈ 1.21 µM)
- MIC (Staphylococcus aureus [9]): 0.5 µg/mL (≈ 1.21 µM)

Compound: CCC(CC)c1cc([C@H]2CN3CC[C@H]2C[C@@H]3CNCc2ccc(CO)o2)nc(-c2ccncc2)n1
- MIC (Staphylococcus aureus [2]): 50.5 µM (≈ 24 µg/mL)
- pIC50 [3]: 4.11

Compound: Cc1ccc(/C=C/c2nc(/C=C3\Sc4ccccc4N3C)c3ccccc3[n+]2C)cc1.[I-]
- MIC (Staphylococcus aureus [10]): 2 µg/mL
- MIC (Staphylococcus aureus [11]): 2 µg/mL

Compound: CCC(CC)c1cc([C@H]2CN3CC[C@H]2C[C@@H]3CNCc2ccco2)nc(-c2ccncc2)n1
- MIC (Staphylococcus aureus [2]): 26.9 µM (≈ 12 µg/mL)
- pIC50 [3]: 4.25

Compound: COc1ccc2cc3[n+](cc2c1OCCCOc1ccc(Cl)cc1)CCc1cc2c(cc1-3)OCO2.[Br-]
- MIC (Staphylococcus aureus [10]): 2 µg/mL
- MIC (Staphylococcus aureus [11]): 2 µg/mL

Compound: Cc1ccc(/C=C/c2nc(/C=C3\Sc4ccccc4N3CCCN3CCC(C)CC3)c3ccccc3[n+]2C)cc1.[I-]
- MIC (Staphylococcus aureus [10]): 2 µg/mL
- MIC (Staphylococcus aureus [11]): 2 µg/mL

Compound: CCN(CC)CCNc1nc(/C=C/c2ccc(Cl)cc2)nc2cc3ccccc3cc12
- MIC (Staphylococcus aureus [12]): 10 µg/mL (≈ 23.2 µM)
- MIC (Staphylococcus aureus [13]): 5 µg/mL (≈ 11.6 µM)

Compound: CCC(CC)c1cc(CCN2CCCN(Cc3ccc(C(F)(F)F)cc3)CC2)nc(-c2ccncc2)n1
- inhibition [14]: 20%
- MIC (Staphylococcus aureus [15]): 6 µg/mL (≈ 11.7 µM)
- MIC (Staphylococcus aureus [6]): 3 µg/mL (≈ 5.86 µM)

- MIC (Escherichia coli): 5 µg/mL
- MIC (Macrococcus caseolyticus): 5 µg/mL
- MIC (Staphylococcus aureus [6]): 5 µg/mL
- MIC (Pseudomonas aeruginosa): 5 µg/mL
- MIC (Staphylococcus aureus [7]): 5 µg/mL
Compound: Cc1n(Cc2ccc(Cl)cc2)c2ccccc2[n+]1Cc1ccc(Cl)cc1

Compound: NC(=O)c1c(F)ccc(OCc2nc3cc(Cl)cnc3s2)c1F
- MIC (Staphylococcus aureus [15]): 1 µg/mL (≈ 2.81 µM)
- MIC (Staphylococcus aureus [6]): 1 µg/mL (≈ 2.81 µM)
- IC50 [16]: 0.055 µg/mL (≈ 0.155 µM)
